From article PMC6611227 (Frontiers in Microbiology, 2019) come the findings set out here.

Data set [1] addresses T1, PiDHODH (dihydroorotate dehydrogenase) (Phytophthora infestans, UniProt D0MUE3).
T1 construct: gene PITG_01913
Kind of data set: biochemical.

Data set [2] deals with T1, PiDHODH (dihydroorotate dehydrogenase). Kind of data set: biochemical. The following applies: read-out: Activity % PiDHODH.
Data set [3] deals with O=C1C[C@@H](C(=O)O)NC(=O)N1. Kind of data set: purified protein.
Substrate in the data set “purified protein”: O=C1C[C@@H](C(=O)O)NC(=O)N1
Kind of data set: purified protein. The note with it: FMN orotate/dihydroorotate site in the α/β-barrel domain.

Read-outs that look alike come from different tables or passages of the source.

T1 sequence (D0MUE3 55-424 limits assumed): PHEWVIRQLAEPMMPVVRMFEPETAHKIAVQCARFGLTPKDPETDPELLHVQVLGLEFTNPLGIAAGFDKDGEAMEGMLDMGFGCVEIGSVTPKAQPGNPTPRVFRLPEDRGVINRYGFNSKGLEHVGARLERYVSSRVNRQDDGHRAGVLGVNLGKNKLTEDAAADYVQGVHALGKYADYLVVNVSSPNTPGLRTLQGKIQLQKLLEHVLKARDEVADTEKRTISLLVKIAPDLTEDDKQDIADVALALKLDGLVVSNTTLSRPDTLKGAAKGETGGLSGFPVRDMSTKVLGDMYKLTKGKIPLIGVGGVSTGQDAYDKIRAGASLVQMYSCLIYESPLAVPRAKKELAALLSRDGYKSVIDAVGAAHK

In general, IC50 refers to the concentration at which inhibition is half-maximal. A higher IC50 goes with weaker potency in that assay. In data set [1], `C/C(O)=C(\C#N)C(=O)Nc1ccc(C(F)(F)F)cc1` [A77 1726] registered an IC50 of 79 ± 8 µM.

On to `Cc1cc(Nc2cc(F)c(C(F)(F)F)c(F)c2)n2ncnc2n1` [DSM190, N-(3,5-difluoro-4-(trifluoromethyl)phenyl)-5-methyl-[1,2,4]triazolo[1,5-a]pyrimidin-7-amine], for which, in data set [2], the activity at 500 µM is 36 ± 10%.

`COc1cc(-c2ccc(Nc3ccccc3C(=O)O)c(OC)c2)ccc1Nc1ccccc1C(=O)O` [Redoxal]: in data set [2], the activity at 500 µM turned out to be 31 ± 8%.

Regarding `O=C(O)C1=C(C(=O)Nc2ccc(-c3ccccc3)cc2)CCC1` [compound 1, 2-(4-biphenylylcarbamoyl)-1-cyclopentene-1-carboxylic acid], in data set [2], the activity at 500 µM came to 23 ± 4%.

In the case of `COc1c(-c2ccccc2)ccc(NC(=O)C(C#N)=C(C)O)c1Cl` [compound 19, N-(3-chloro-2-methoxybiphenyl-4-yl)-2-cyano-3-hydroxybut-2-enamide], the activity at 500 µM in data set [2] was determined as 2 ± 0.5%.

Turning to `CC(O)=C(C#N)C(=O)Nc1ccc(-c2ccccc2)cc1Cl` [compound 28, N-(3-chlorobiphenyl-4-yl)-2-cyano-3-hydroxybut-2-enamide], the activity at 500 µM in data set [2] amounted to 1 ± 0.7%.

Take `O=C1C(O)=C(CC=C(Cl)Cl)C(=O)c2ccccc21` [dichloroallyl lawsone]: the activity at 500 µM in data set [2] came out at 30 ± 2%.

The Km is the concentration of substrate that gives half-maximal velocity. With “PiDHODH (dihydroorotate dehydrogenase) (Phytophthora infestans T30-4)”, the Michaelis constant (Km) in data set [3] amounted to 57 ± 3 µM.

B1: StDHODH (dihydroorotate dehydrogenase) (Solanum tuberosum; I273V/I299V/P120T/P359Q) (protein)
chain: ASTVDEATFCGWLFSATKLVNPFFAFLDPEVAHRLAVSAAARGWVPREKRTDLPILGLDVWGRRFSNPVGLAAGFDKNAEAVEGLLGLGFGFVEVGSVTPIPQEGNPKPRIFRLPNEGALINRCGFNSEGIVAVAKRLGAQHGKRKLETSSTSSPAGDEVKHGGKAGPGILGVNLGKNKTSEDAAADYVQGVHTLSQYADYLVVNISSPNTPGLRQLQGRKQLKDLVKKVQAARDEMQWGEEGPPPLLVKIAPDLSKQDLEDIAAVALALRVDGLIISNTTIQRPDSVSQNPVAQETGGLSGKPLFNMSTNILKEMYLLTKGRIPLIGCGGISSGEDAYKKIRAGATLVQLYTAFGYGGPALIPNIKAELAHCLEKDGYKSVHEAVGADCR
Take B1: the Michaelis-Menten constant (Km) in “purified protein” was 20 ± 1 µM.
